Data as given in patent US20230263822A1, “MODULATION OF FACTOR 11 EXPRESSION” (Ionis Pharmaceuticals, Inc., priority 2008, published 2023).
Strand notation (5' to 3'): a small letter for the sugar, then the base; units joined by * are phosphorothioate-linked, units joined directly phosphodiester-linked; [ ] holds rarer units or linkages, { } end groups; capitals alone tell only the bases. e = 2'-O-(2-methoxyethyl) (MOE); [5mC] = 5-methylcytosine; d = 2'-deoxy (DNA)

Tests used:
human Factor 11 mRNA [1] = assay: Antisense inhibition of human Factor 11 in HepG2 cells, electroporation, 8,000 nM (Example 30); format: cell-based; conditions: electroporation, 8,000 nM antisense oligonucleotide
Procedure, shortened: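 HepG2 cells electroporated with 8,000 nM 5-10-5, 5-8-5 or 6-8-6 MOE gapmers (phosphorothioate, 5-methylcytidine), ~24 h. Factor 11 mRNA quantified by qRT-PCR, normalised to RIBOGREEN total RNA. Reported as percent inhibition versus untreated cells.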

human Factor 11 mRNA [2] = assay: Dose-dependent inhibition of human Factor 11 in HepG2 cells, electroporation 123.46-10,000 nM (Example 31); format: cell-based
Protocol: Cells were plated at a density of 20,000 cells per well and transfected using electroporation with 123.46 nM, 370.37 nM, 1,111.11 nM, 3,333.33 nM and 10,000 nM concentrations of antisense oligonucleotide, as specified in Table 45. After a treatment period of approximately 16 hours, RNA was isolated from the cells and Factor 11 mRNA levels were measured by quantitative real-time PCR. Human Factor 11 primer probe set RTS 2966 was used to measure mRNA levels. Factor 11 mRNA levels were adjusted according to total RNA content, as measured by RIBOGREEN. Results are presented as percent inhibition of Factor 11, relative to untreated control cells.

[3] = Viscosity of ISIS antisense oligonucleotides, micro-viscometer at 25 °C (Example 47); format: physicochemical; conditions: for Concentration: concentration of the viscosity sample, UV reading at 260 nM at 85° C.; for Viscosity: in water, micro-viscometer at 25° C., at the concentration of the same line
Protocol: The viscosity of antisense oligonucleotides targeting human Factor 11 was measured with the aim of screening out antisense oligonucleotides which have a viscosity more than 40 cP at a concentration of 165-185 mg/mL.
ISIS oligonucleotides (32-35 mg) were weighed into a glass vial, 120 μL of water was added and the antisense oligonucleotide was dissolved into solution by heating the vial at 50° C. Part of (75 μL) the pre-heated sample was pipetted to a micro-viscometer (Cambridge). The temperature of the micro-viscometter was set to 25° C. and the viscosity of the sample was measured. Another part (20 μL) of the pre-heated sample was pipetted into 10 mL of water for UV reading at 260 nM at 85° C. (Cary UV instrument).

[4] = mouse, in vivo, sc, 50 mg/kg
[5] = mouse, in vivo, sc, 50 mg/kg; remark: listed apart in the source
[6] = mouse, in vivo, sc, 50 mg/kg; remark: listed apart in the source

Row | Substance | Percent inhibition of human Factor 11 mRNA levels (human Factor 11 mRNA [1]) [%] | Concentration [3] [mg/mL] | Viscosity [3] [cP] | BUN [4] [mg/dL] | HCT [5] [%] | Lymphocyte [5] [cells/μL] | Neutrophil [5] [cells/μL] | Platelets [5] | RBC [5] | WBC [5] | hemoglobin [5] [g/dL] | monocytes [5] [cells/μL] | ALT [6] [IU/L] | AST [6] [IU/L] | Bilirubin [6] [mg/dL] | Cholesterol [6] [mg/dL] | further results
1 | 445505 (antisense e[5mC]*eG*eG*e[5mC]*eA*eT*dT*dG*dG*dT*dG*d[5mC]*dA*d[5mC]*eA*eG*eT*eT*eT*e[5mC]) [compound 445505] | 89 | 155 | 9 | – | – | – | – | – | – | – | – | – | – | – | – | – | Percent inhibition of Factor 11 mRNA at 123.47 nM (human Factor 11 mRNA [2]; electroporation, 123.47 nM, approx. 16 hours, relative to untreated control cells): 12%; Percent inhibition of Factor 11 mRNA at 370.37 nM (human Factor 11 mRNA [2]; electroporation, 370.37 nM, approx. 16 hours, relative to untreated control cells): 30%; Percent inhibition of Factor 11 mRNA at 1,111.11 nM (human Factor 11 mRNA [2]; electroporation, 1,111.11 nM, approx. 16 hours, relative to untreated control cells): 39%; Percent inhibition of Factor 11 mRNA at 3,333.33 nM (human Factor 11 mRNA [2]; electroporation, 3,333.33 nM, approx. 16 hours, relative to untreated control cells): 59%; Percent inhibition of Factor 11 mRNA at 10,000.0 nM (human Factor 11 mRNA [2]; electroporation, 10,000.0 nM, approx. 16 hours, relative to untreated control cells): 77%; IC50 (human Factor 11 mRNA [2]; electroporation, Factor 11 mRNA expression): 1800 nM
2 | ISIS 416862: MOE gapmer, nucleobases 1275 to 1318 of SEQ ID NO: 1 (Table 8) (antisense AGCGGACGGCATTGGTGCAC; MOE gapmer, wing and gap sizes not given here) | – | – | – | 21 | 49 | 4445 | 1118 | 1007 10^3/μL | 9 10^6/μL | 6 10^3/μL | 14 | 174 | 225 | 172 | 0.36 | 103 | –
3 | 445509 (antisense e[5mC]*eG*eG*eA*e[5mC]*eG*dG*d[5mC]*dA*dT*dT*dG*dG*dT*eG*e[5mC]*eA*e[5mC]*eA*eG) [compound 445509] | 84 | 167 | >100 | – | – | – | – | – | – | – | – | – | – | – | – | – | –
4 | ISIS 416857: MOE gapmer, nucleobases 1275 to 1318 of SEQ ID NO: 1 (Table 8) (antisense CGGCATTGGTGCACAGTTTC; MOE gapmer, wing and gap sizes not given here) | – | – | – | 17 | 53 | 3697 | 1334 | 603 10^3/μL | 10 10^6/μL | 6 10^3/μL | 15 | 215 | 370 | 269 | 0.22 | 94 | –
5 | ISIS 416854: MOE gapmer, nucleobases 1275 to 1318 of SEQ ID NO: 1 (Table 8) (antisense ATTGGTGCACAGTTTCTGGC; MOE gapmer, wing and gap sizes not given here) | – | – | – | 27 | 43 | 9375 | 2082 | 1060 10^3/μL | 9 10^6/μL | 12 10^3/μL | 13 | 455 | 1613 | 1140 | 0.21 | 199 | –
